Converted amounts (≈) assume the structure as drawn.
Tests used:
Type in all cases: functional
Bacillus subtilis [1] = assay: Antibacterial activity against Bacillus subtilis MTCC 441 at 1000 ug/ml after 48 hr by cup-plate method; conditions: MTCC 441, 48 h, read-out: DIZ
Bacillus subtilis [2] = assay: Antibacterial activity against Bacillus subtilis MTCC 441 at 750 ug/ml after 48 hr by cup-plate method; conditions: MTCC 441, 48 h, read-out: DIZ
Bacillus subtilis [3] = assay: Antibacterial activity against Bacillus subtilis MTCC 441 at 500 ug/ml after 48 hr by cup-plate method; conditions: MTCC 441, 48 h, read-out: DIZ
Micrococcus luteus [4] = assay: Antibacterial activity against Micrococcus luteus MTCC 1538 after 24 to 48 hr by tube dilution method
Escherichia coli [5] = assay: Antibacterial activity against Escherichia coli MTCC 1573 after 24 to 48 hr by tube dilution method
Penicillium chrysogenum [6] = assay: Antifungal activity against Penicillium chrysogenum MTCC 161 after 24 to 48 hr by tube dilution method
Aspergillus niger [7] = assay: Antifungal activity against Aspergillus niger MTCC 2546 after 24 to 48 hr by tube dilution method
Pseudomonas fluorescens [8] = assay: Antibacterial activity against Pseudomonas fluorescens MTCC 2421 after 24 to 48 hr by tube dilution method
Bacillus pumilus [9] = assay: Antibacterial activity against Bacillus pumilus MTCC 1456 after 24 to 48 hr by tube dilution method
Pseudomonas aeruginosa [10] = assay: Antibacterial activity against Pseudomonas aeruginosa MTCC 424 after 24 to 48 hr by tube dilution method
Staphylococcus aureus [11] = assay: Antibacterial activity against Staphylococcus aureus MTCC 1430 after 24 to 48 hr by tube dilution method
Penicillium chrysogenum [12] = assay: Antifungal activity against Penicillium chrysogenum MTCC 161 at 1250 ug/ml after 48 hr by cup-plate method; conditions: MTCC 161, 48 h, read-out: DIZ
Penicillium chrysogenum [13] = assay: Antifungal activity against Penicillium chrysogenum MTCC 161 at 1000 ug/ml after 48 hr by cup-plate method; conditions: MTCC 161, 48 h, read-out: DIZ
Penicillium chrysogenum [14] = assay: Antifungal activity against Penicillium chrysogenum MTCC 161 at 750 ug/ml after 48 hr by cup-plate method; conditions: MTCC 161, 48 h, read-out: DIZ
Penicillium chrysogenum [15] = assay: Antifungal activity against Penicillium chrysogenum MTCC 161 at 500 ug/ml after 48 hr by cup-plate method; conditions: MTCC 161, 48 h, read-out: DIZ
Penicillium chrysogenum [16] = assay: Antifungal activity against Penicillium chrysogenum MTCC 161 at 250 ug/ml after 48 hr by cup-plate method; conditions: MTCC 161, 48 h, read-out: DIZ
Penicillium chrysogenum [17] = assay: Antifungal activity against Penicillium chrysogenum MTCC 161 at 100 ug/ml after 48 hr by cup-plate method; conditions: MTCC 161, 48 h, read-out: DIZ
Aspergillus niger [18] = assay: Antifungal activity against Aspergillus niger MTCC 2546 at 1000 ug/ml after 48 hr by cup-plate method; conditions: MTCC 2546, 48 h, read-out: DIZ
Aspergillus niger [19] = assay: Antifungal activity against Aspergillus niger MTCC 2546 at 500 ug/ml after 48 hr by cup-plate method; conditions: MTCC 2546, 48 h, read-out: DIZ
Aspergillus niger [20] = assay: Antifungal activity against Aspergillus niger MTCC 2546 at 250 ug/ml after 48 hr by cup-plate method; conditions: MTCC 2546, 48 h, read-out: DIZ
Aspergillus niger [21] = assay: Antifungal activity against Aspergillus niger MTCC 2546 at 100 ug/ml after 48 hr by cup-plate method; conditions: MTCC 2546, 48 h, read-out: DIZ
Pseudomonas fluorescens [22] = assay: Antibacterial activity against Pseudomonas fluorescens MTCC 2421 at 1250 ug/ml after 48 hr by cup-plate method; conditions: MTCC 2421, 48 h, read-out: DIZ
Pseudomonas fluorescens [23] = assay: Antibacterial activity against Pseudomonas fluorescens MTCC 2421 at 1000 ug/ml after 48 hr by cup-plate method; conditions: MTCC 2421, 48 h, read-out: DIZ
Pseudomonas fluorescens [24] = assay: Antibacterial activity against Pseudomonas fluorescens MTCC 2421 at 500 ug/ml after 48 hr by cup-plate method; conditions: MTCC 2421, 48 h, read-out: DIZ
Pseudomonas fluorescens [25] = assay: Antibacterial activity against Pseudomonas fluorescens MTCC 2421 at 250 ug/ml after 48 hr by cup-plate method; conditions: MTCC 2421, 48 h, read-out: DIZ
Escherichia coli [26] = assay: Antibacterial activity against Escherichia coli MTCC 1573 at 1250 ug/ml after 48 hr by cup-plate method; conditions: MTCC 1573, 48 h, read-out: DIZ
Micrococcus luteus [27] = assay: Antibacterial activity against Micrococcus luteus MTCC 1538 at 1000 ug/ml after 48 hr by cup-plate method; conditions: MTCC 1538, 48 h, read-out: DIZ
Micrococcus luteus [28] = assay: Antibacterial activity against Micrococcus luteus MTCC 1538 at 750 ug/ml after 48 hr by cup-plate method; conditions: MTCC 1538, 48 h, read-out: DIZ
Escherichia coli [29] = assay: Antibacterial activity against Escherichia coli MTCC 1573 at 500 ug/ml after 48 hr by cup-plate method; conditions: MTCC 1573, 48 h, read-out: DIZ
Escherichia coli [30] = assay: Antibacterial activity against Escherichia coli MTCC 1573 at 250 ug/ml after 48 hr by cup-plate method; conditions: MTCC 1573, 48 h, read-out: DIZ
Micrococcus luteus [31] = assay: Antibacterial activity against Micrococcus luteus MTCC 1538 at 1250 ug/ml after 48 hr by cup-plate method; conditions: MTCC 1538, 48 h, read-out: DIZ
Micrococcus luteus [32] = assay: Antibacterial activity against Micrococcus luteus MTCC 1538 at 500 ug/ml after 48 hr by cup-plate method; conditions: MTCC 1538, 48 h, read-out: DIZ
Micrococcus luteus [33] = assay: Antibacterial activity against Micrococcus luteus MTCC 1538 at 250 ug/ml after 48 hr by cup-plate method; conditions: MTCC 1538, 48 h, read-out: DIZ
Bacillus pumilus [34] = assay: Antibacterial activity against Bacillus pumilus MTCC 1456 at 1250 ug/ml after 48 hr by cup-plate method; conditions: MTCC 1456, 48 h, read-out: DIZ
Bacillus pumilus [35] = assay: Antibacterial activity against Bacillus pumilus MTCC 1456 at 1000 ug/ml after 48 hr by cup-plate method; conditions: MTCC 1456, 48 h, read-out: DIZ
Bacillus pumilus [36] = assay: Antibacterial activity against Bacillus pumilus MTCC 1456 at 250 ug/ml after 48 hr by cup-plate method; conditions: MTCC 1456, 48 h, read-out: DIZ
Staphylococcus aureus [37] = assay: Antibacterial activity against Staphylococcus aureus MTCC 1430 at 750 ug/ml after 48 hr by cup-plate method; conditions: MTCC 1430, 48 h, read-out: DIZ
Staphylococcus aureus [38] = assay: Antibacterial activity against Staphylococcus aureus MTCC 1430 at 500 ug/ml after 48 hr by cup-plate method; conditions: MTCC 1430, 48 h, read-out: DIZ
Staphylococcus aureus [39] = assay: Antibacterial activity against Staphylococcus aureus MTCC 1430 at 250 ug/ml after 48 hr by cup-plate method; conditions: MTCC 1430, 48 h, read-out: DIZ
Pseudomonas aeruginosa [40] = assay: Antibacterial activity against Pseudomonas aeruginosa MTCC 424 at 1000 ug/ml after 48 hr by cup-plate method; conditions: MTCC 424, 48 h, read-out: DIZ
Pseudomonas aeruginosa [41] = assay: Antibacterial activity against Pseudomonas aeruginosa MTCC 424 at 750 ug/ml after 48 hr by cup-plate method; conditions: MTCC 424, 48 h, read-out: DIZ
Pseudomonas aeruginosa [42] = assay: Antibacterial activity against Pseudomonas aeruginosa MTCC 424 at 500 ug/ml after 48 hr by cup-plate method; conditions: MTCC 424, 48 h, read-out: DIZ
Pseudomonas aeruginosa [43] = assay: Antibacterial activity against Pseudomonas aeruginosa MTCC 424 at 250 ug/ml after 48 hr by cup-plate method; conditions: MTCC 424, 48 h, read-out: DIZ
Pseudomonas aeruginosa [44] = assay: Antibacterial activity against Pseudomonas aeruginosa MTCC 424 at 100 ug/ml after 48 hr by cup-plate method; conditions: MTCC 424, 48 h, read-out: DIZ

O=[N+]([O-])c1ccc(C2CC(c3cccc4ccccc34)=NN2c2ccccc2)cc1 (centres undefined)
zone of inhibition at 1000 µg/mL (Bacillus subtilis [1]): 19 mm
zone of inhibition at 750 µg/mL (Bacillus subtilis [2]): 17 mm
zone of inhibition at 500 µg/mL (Bacillus subtilis [3]): 15 mm
MIC (Micrococcus luteus [4]): 200 µg/mL (≈ 508 µM)
MIC (Escherichia coli [5]): 50 µg/mL (≈ 127 µM)
MIC (Penicillium chrysogenum [6]): 30 µg/mL (≈ 76.2 µM)
MIC (Aspergillus niger [7]): 30 µg/mL (≈ 76.2 µM)
MIC (Pseudomonas fluorescens [8]): 30 µg/mL (≈ 76.2 µM)
MIC (Bacillus pumilus [9]): 150 µg/mL (≈ 381 µM)
MIC (Pseudomonas aeruginosa [10]): 50 µg/mL (≈ 127 µM)
MIC (Staphylococcus aureus [11]): 150 µg/mL (≈ 381 µM)
zone of inhibition at 1250 µg/mL (Penicillium chrysogenum [12]): 18 mm
zone of inhibition at 1000 µg/mL (Penicillium chrysogenum [13]): 16 mm
zone of inhibition at 750 µg/mL (Penicillium chrysogenum [14]): 15 mm
zone of inhibition at 500 µg/mL (Penicillium chrysogenum [15]): 13 mm
zone of inhibition at 250 µg/mL (Penicillium chrysogenum [16]): 12 mm
zone of inhibition at 100 µg/mL (Penicillium chrysogenum [17]): 10 mm
zone of inhibition at 1000 µg/mL (Aspergillus niger [18]): 21 mm
zone of inhibition at 500 µg/mL (Aspergillus niger [19]): 13 mm
zone of inhibition at 250 µg/mL (Aspergillus niger [20]): 12 mm
zone of inhibition at 100 µg/mL (Aspergillus niger [21]): 10 mm
zone of inhibition at 1250 µg/mL (Pseudomonas fluorescens [22]): 19 mm
zone of inhibition at 1000 µg/mL (Pseudomonas fluorescens [23]): 16 mm
zone of inhibition at 500 µg/mL (Pseudomonas fluorescens [24]): 10 mm
zone of inhibition at 250 µg/mL (Pseudomonas fluorescens [25]): 9 mm
zone of inhibition at 1250 µg/mL (Escherichia coli [26]): 18 mm
zone of inhibition at 1000 µg/mL (Micrococcus luteus [27]): 13 mm
zone of inhibition at 750 µg/mL (Micrococcus luteus [28]): 11 mm
zone of inhibition at 500 µg/mL (Escherichia coli [29]): 11 mm
zone of inhibition at 250 µg/mL (Escherichia coli [30]): 10 mm
zone of inhibition at 1250 µg/mL (Micrococcus luteus [31]): 17 mm
zone of inhibition at 500 µg/mL (Micrococcus luteus [32]): 9 mm
zone of inhibition at 250 µg/mL (Micrococcus luteus [33]): 8 mm
zone of inhibition at 1250 µg/mL (Bacillus pumilus [34]): 18 mm
zone of inhibition at 1000 µg/mL (Bacillus pumilus [35]): 16 mm
zone of inhibition at 250 µg/mL (Bacillus pumilus [36]): 9 mm
zone of inhibition at 750 µg/mL (Staphylococcus aureus [37]): 12 mm
zone of inhibition at 500 µg/mL (Staphylococcus aureus [38]): 11 mm
zone of inhibition at 250 µg/mL (Staphylococcus aureus [39]): 10 mm
zone of inhibition at 1000 µg/mL (Pseudomonas aeruginosa [40]): 17 mm
zone of inhibition at 750 µg/mL (Pseudomonas aeruginosa [41]): 14 mm
zone of inhibition at 500 µg/mL (Pseudomonas aeruginosa [42]): 12 mm
zone of inhibition at 250 µg/mL (Pseudomonas aeruginosa [43]): 10 mm
zone of inhibition at 100 µg/mL (Pseudomonas aeruginosa [44]): 9 mm
